Laboratory results: patent US7329650B2, “Peptides and peptide analogues designed from HFE protein and their uses in the treatment of iron overload diseases” (Bio-Rad Laboratories, Inc., priority 1998, dated 2008)
Ends that are not written are not given here.

Biological target: T1, transferrin receptor (TfR) (Homo sapiens, UniProt P02786)
T1 construct: HeLa cells were grown to 80-90% confluence at 37° C. at 5% CO2; endogenous in cells; host or cells: HeLa cells
Assay: Measurement of cell-associated transferrin (labeled transferrin binding to HeLa cells, Scatchard analysis)
Conditions: for effect on TfR affinity for transferrin (in words): HeLa cells, peptide 50 μM or soluble HFE/β2m 100 nM alone

T1 sequence (P02786 whole entry): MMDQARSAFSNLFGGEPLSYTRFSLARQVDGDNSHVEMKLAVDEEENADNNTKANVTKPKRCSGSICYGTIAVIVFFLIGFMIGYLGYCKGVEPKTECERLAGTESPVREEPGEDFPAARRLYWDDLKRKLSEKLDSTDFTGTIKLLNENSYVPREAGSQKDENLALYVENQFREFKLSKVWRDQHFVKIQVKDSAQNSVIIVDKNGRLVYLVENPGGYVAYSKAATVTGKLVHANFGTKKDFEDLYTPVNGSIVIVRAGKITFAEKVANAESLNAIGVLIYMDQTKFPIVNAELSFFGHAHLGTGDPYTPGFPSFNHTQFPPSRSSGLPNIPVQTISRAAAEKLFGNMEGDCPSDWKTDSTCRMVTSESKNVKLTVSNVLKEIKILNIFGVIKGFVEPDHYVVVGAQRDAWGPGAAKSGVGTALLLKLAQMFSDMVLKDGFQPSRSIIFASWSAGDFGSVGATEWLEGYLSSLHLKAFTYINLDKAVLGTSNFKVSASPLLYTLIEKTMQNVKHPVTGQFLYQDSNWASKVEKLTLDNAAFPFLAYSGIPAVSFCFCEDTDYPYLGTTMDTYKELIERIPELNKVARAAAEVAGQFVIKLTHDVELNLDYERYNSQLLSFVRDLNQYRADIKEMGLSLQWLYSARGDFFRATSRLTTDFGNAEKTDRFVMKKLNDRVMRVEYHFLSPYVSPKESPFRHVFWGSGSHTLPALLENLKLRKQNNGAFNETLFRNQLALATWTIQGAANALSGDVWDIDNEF

Sequence	effect on TfR affinity for transferrin (in words) (FIG. 2 experiment)	effect on TfR affinity for transferrin (in words) (FIG. 3 experiment)	increase of KD of TfR for transferrin versus HeLa cells alone (FIG. 1 experiment, peptide 50 μM or soluble HFE/β2m 100 nM)
GWDHMFTVDFATIMENH [G-(17)-H (Ala)]	little effect	little effect	
GWDHMFTVDFWTIMENH [G-(17)-H (Trp)]		significant increase in KD	approximately 2 fold
